Experimental data reported in patent publication US5190956A, “Certain N-substituted 3-oximino-2,4-dioxoquinolin-2,4-(1H)diones useful for treating viral infections” (Schering Corporation, priority 1990, dated 1993).

What was measured:
HSV-2, strain MS = assay: In vivo anti-HSV efficacy, prophylactic guinea pig model of HSV infection; conditions: 60 mg per kg subcutaneously, T.I.D., 10 days, first dose 24 hrs before infection
Description: The in vivo assessment of anti-HSV efficacy was determined in the prophylactic guinea pig model of HSV infection described by Stansberry et al (1982). Dosing of guinea pigs was comprised of an initial treatment with test compound given 24 hrs prior to virus infection and subsequent administration of the compound every eight hours (T.I.D.) for a total of 10 days. Test compounds were administered subcutaneously in 0.5% buffered methyl cellulose at a dose of 60 mg per kg body weight of the animal. Animals were monitored daily for the developement of genital lesions and neurological symptomology, both of which were recorded and compared to the results obtained with parallel groups which received placebo or acyclovir treatment. Efficacy was evaluated for each compound by scoring the ability of the compound to ameliorate genital lesions produced by infection with HSV-2, strain MS, expressed as Maximum Lesion scores (MLS) on a scale of 1 (least lesions) to 4 (severe lesions).

[1] = Cytotoxicity, 3H-LEU assay (inhibition of HeLa cell translation); type: cell-based; conditions: human; HeLa cells, tritiated leucine incorporation after overnight/24 hrs treatment; read-out: CYTOTOXICITY 3H-LEU ASSAY IC50
Description: HeLa cells were treated with inhibitory compound for 24 hrs, after which levels of translational activity were assayed.
For assay of translational activity, HeLa cultures were grown to 80% confluency in 96 well microtiter plates, treated with appropriate concentrations of compound in 2% EMEM during an overnight incubation at 37° C., then rinsed with HBSS and overlaid with […] of 2% EMEM containing 8 uCi of tritiated leucine (^3 H-LEU, 141 Cu/mMol, Amersham Corp., Arlington Heights Ill.). After a 1 hr incubation at 36.5° C., the cells were rinsed twice with phosphate buffered saline (PBS) and lysed in 400 ul/well of 1×PBS, 0.5% sodium dodecyl sulphate (SDS). After a 10 min incubation at 36.5° C., the contents of the well were transferred to a well in a Millititer HA microfiltration plate (Millipore Corp., Bedford, Mass.). The TCA insoluble proteins were precipitated onto the filter disc by a 10 min fixation with 5% TCA, followed by filtration under vacuum and three 10 minute rinse with 95% ethanol. The filters were dried at room temperature, cut from the milltitier plate and transferred to scintillation vials. TCA precipitable counts were assayed in 5 ml of Scintisol (Isolab, Akron, Ohio). The inhibitory activity of a compound was plotted versus the concentration and an IC50 value (that concentration of the compound required to decrease cellular translational activity by 50%) was derived for each compound.

HSV-2 (strain MS) = assay: HSV-β-GAL assay (transient expression of beta galactosidase in transfected HeLa cells superinfected with HSV-2); type: cell-based; conditions: HeLa cells transfected with pON 245^ori-, moi=5 pfu/cell, more than one number = additional tests; for IC50: Human alphaherpesvirus 2, HeLa, 24 h, read-out: ANTI-HSV ACTIVITY HSV-β-GAL ASSAY IC50
Description: HeLa and Vero cell cultures were maintained in Eagles Minimal Essential Medium which was supplemented with glutamine, penicillin, streptomycin and 10% fetal calf serum (10% EMEM). Stock cultures of HSV-2 (strain MS available from ATCC VR-540) were grown in and harvested from Vero cells. Viral stocks were titered in Vero cells according to established procedures.
Plasmid pON 245^ori- contains the promoter of the HSV-1 thymidine kinase (tk) gene located immediately 5' of the E. coli lac Z gene. In this arrangement, the tk promoter controls transcription from the bacterial gene in transient expression assays. Additionally, an SV40 polyadenylation signal is present at the 3' end of the lac Z gene to allow for the efficient translation of the mRNA in eucaryotic cells. The expression of beta galactosidase in a transient assay using pON 245^ori- is dependent upon superinfection of the transfected cells with HSV. […] For example, see U.S. application Ser. No. 07/435,491 filed Sep. 5, 1989, the disclosure of which is incorporated herein by reference thereto.
HeLa cells were seeded into 96 well microtiter plates and allowed to grow to 80% confluency (approximately 35000 cells/well). One half microgram of plasmid pON 245^ori- DNA was introduced into the cells of each well by the […] precipitation technique (Grahman and Van der Eb, 1973). Four to six hours later, the cells were rinsed with Hank's Balanced Salt Solution (HBSS), overlaid with 10% EMEM and incubated at 37° C. At 24 hrs post-transfection, cells were rinsed, overlaid with 10% EMEM again and re-incubated at 37° C. At 48 hrs. post-transfection, cells were rinsed and overlaid with either EMEM containing 2% fetal calf serum (2% EMEM), 2% EMEM containing HSV-2 (strain MS, Multiplicity of Infection [moi]=5 pfu/cell) or 2% EMEM containing HSV-2 and the appropriate concentration of the compound to be tested. Twenty-four hrs later, the cells were harvested and assayed for beta galactosidase activity as described below.
All determinations of beta galactosidase activity were performed in 96 well microtiter plates. The intracellar level of beta galactosidase activity in each well was determined from cell lysates of the monolayer cultures. Aliquots were assayed by incubation in the presence of beta galactosidase substrate, 4-methylumbelliferyl-β-D-galactoside (MUG, 125 ug/ml, Sigma), for 2 hrs. The generation of fluorescent product was quantified on a Microfluor microfluorimeter (Dynatech) after addition of 0.1M glycine, pH 10.3 (Spaete and Mocarski, 1985). The inhibitory activity of a compound was plotted versus the concentration and an IC50 value (the concentration of compound required to reduce beta glactosidase expression by 50%) was obtained for each compound tested.

| ANTI-HSV ACTIVITY HSV-β-GAL ASSAY IC50 (HSV-2 (strain MS); 24 hrs) [µg/mL] | IC50 (HSV-2 (strain MS)) [µg/mL] | SMILES | In-vivo anti-HSV activity (genital lesions, Maximum Lesion score) (HSV-2, strain MS) | CC50 at 24 h [1] [µg/mL] |
| --- | --- | --- | --- | --- |
| 2.5 | < 3 | CCCCCCCN1C(=O)C(=NO)C(=O)c2ccccc21 [Formula 1.04] | inactive | 37 |
|  | 7 | O=C1C(=NO)C(=O)N(Cc2ccccc2)c2ccccc21 [Formula 1.03] |  | 40 |
|  | 7 | CN1C(=O)C(=NO)C(=O)c2ccccc21 [Formula 1.02] |  | 27 |
